According to PubChem BioAssay AID344 (DTP/NCI, 2004):
Toxic doses and inconclusive results are not listed. How the source made its calls: active means survival T/C of 150% or more; inactive means T/C below 125% in these data.

System: mice, LPC-1 plasma cell tumor ip, median survival T/C
Experiment: NCI In Vivo Anticancer Drug Screen. Data for tumor model Lieberman Plasma Cell No. 1 (LPC-1) (intraperitoneal) in unknown mice
Settings: endpoint: median survival time, higher = longer survival
Description: The antitumor activity of compounds was measured in mice bearing transplantable tumors. Survival or tumor size were measured and the results are expressed as the measurement made in the treated group (T) divided by the measurement made in the vehicle treated control group (C). The tumor model used in this assay is Lieberman Plasma Cell No. 1 (LPC-1) (intraperitoneal) in unknown mice

[1] = dose: 2.0 mg/kg/injection, schedule: Q01DX028 (sc), vehicle: saline
[2] = dose: 4.0 mg/kg/injection, schedule: Q01DX028 (sc), vehicle: saline
[3] = dose: 1.0 mg/kg/injection, schedule: Q01DX028 (sc), vehicle: saline

Measured: T/C

Nc1nc(=S)c2ncn(C3OC(CO)C(O)C3O)c2[nH]1 (stereo unspecified)
inactive: dose: 3.0 mg/kg/injection, schedule: Q01DX028 (sc), vehicle: water 121 % of control | dose: 5.0 mg/kg/injection, schedule: Q01DX028 (sc), vehicle: water 110 % of control | dose: 8.4 mg/kg/injection, schedule: Q01DX028 (sc), vehicle: water 110 % of control | dose: 14.0 mg/kg/injection, schedule: Q01DX028 (sc), vehicle: water 100 % of control | dose: 23.0 mg/kg/injection, schedule: Q01DX028 (sc), vehicle: water 100 % of control

CC1(C)CC(C)(c2ccc(O)cc2)c2ccccc2O1 (stereo unspecified)
inactive: dose: 200.0 mg/kg/injection, schedule: Q01DX028 (sc), vehicle: steriod suspending solution 114 % of control | dose: 400.0 mg/kg/injection, schedule: Q01DX028 (sc), vehicle: steriod suspending solution 114 % of control

O=c1ccc2cc(O)c(O)cc2o1
inactive: dose: 31.0 mg/kg/injection, schedule: Q01DX028 (sc), vehicle: steriod suspending solution 119 % of control | dose: 62.0 mg/kg/injection, schedule: Q01DX028 (sc), vehicle: steriod suspending solution 115 % of control

Cc1cc(N(CCCl)CCCl)ccc1C=Nc1ccccc1-c1ccccc1
inactive: dose: 23.0 mg/kg/injection, schedule: Q01DX015 (sc), vehicle: carboxymethylcellulose (CMC) 92 % of control | dose: 180.0 mg/kg/injection, schedule: Q01DX015 (sc), vehicle: carboxymethylcellulose (CMC) 102 % of control

O=c1[nH]cc(F)c(=O)[nH]1
inactive: [1] 122 % of control | dose: 3.0 mg/kg/injection, schedule: Q01DX024 (sc), vehicle: saline 109 % of control | dose: 5.8 mg/kg/injection, schedule: Q01DX001 (sc), vehicle: saline 105 % of control | dose: 5.8 mg/kg/injection, schedule: Q01DX002 (sc), vehicle: saline 100 % of control | dose: 5.8 mg/kg/injection, schedule: Q01DX003 (sc), vehicle: saline 112 % of control | dose: 5.8 mg/kg/injection, schedule: Q01DX004 (sc), vehicle: saline 110 % of control | dose: 6.0 mg/kg/injection, schedule: Q01DX024 (sc), vehicle: saline 121 % of control | dose: 6.0 mg/kg/injection, schedule: Q## X008 (sc), vehicle: saline 104 % of control | dose: 6.0 mg/kg/injection, schedule: Q## X012 (sc), vehicle: saline 114 % of control | dose: 9.6 mg/kg/injection, schedule: Q01DX001 (sc), vehicle: saline 110 % of control | dose: 9.6 mg/kg/injection, schedule: Q01DX002 (sc), vehicle: saline 112 % of control | dose: 9.6 mg/kg/injection, schedule: Q01DX003 (sc), vehicle: saline 120 % of control | dose: 9.6 mg/kg/injection, schedule: Q01DX004 (sc), vehicle: saline 112 % of control | dose: 12.0 mg/kg/injection, schedule: Q## X008 (sc), vehicle: saline 117 % of control | dose: 12.0 mg/kg/injection, schedule: Q## X012 (sc), vehicle: saline 117 % of control | dose: 16.0 mg/kg/injection, schedule: Q01DX001 (sc), vehicle: saline 115 % of control | dose: 16.0 mg/kg/injection, schedule: Q01DX002 (sc), vehicle: saline 117 % of control | dose: 26.7 mg/kg/injection, schedule: Q01DX001 (sc), vehicle: saline 120 % of control | dose: 26.7 mg/kg/injection, schedule: Q01DX002 (sc), vehicle: saline 122 % of control | dose: 32.0 mg/kg/injection, schedule: Q01DX028 (sc), vehicle: saline 93 % of control | dose: 44.5 mg/kg/injection, schedule: Q01DX003 (sc), vehicle: saline 107 % of control | dose: 44.5 mg/kg/injection, schedule: Q01DX004 (sc), vehicle: saline 120 % of control | dose: 48.0 mg/kg/injection, schedule: Q01DX024 (sc), vehicle: saline 102 % of control | dose: 96.0 mg/kg/injection, schedule: Q## X008 (sc), vehicle: saline 95 % of control | dose: 96.0 mg/kg/injection, schedule: Q## X012 (sc), vehicle: saline 90 % of control
active: [2] 155 % of control | dose: 8.0 mg/kg/injection, schedule: Q01DX028 (sc), vehicle: saline 251 % of control | dose: 12.0 mg/kg/injection, schedule: Q01DX024 (sc), vehicle: saline 214 % of control | dose: 16.0 mg/kg/injection, schedule: Q01DX028 (sc), vehicle: saline 155 % of control | dose: 24.0 mg/kg/injection, schedule: Q## X012 (sc), vehicle: saline 156 % of control | dose: 26.7 mg/kg/injection, schedule: Q01DX004 (sc), vehicle: saline 157 % of control

CNNCc1ccc(C(=O)NC(N)=O)cc1
inactive: dose: 50.0 mg/kg/injection, schedule: Q01DX028 (sc), vehicle: saline 100 % of control | dose: 100.0 mg/kg/injection, schedule: Q01DX028 (sc), vehicle: saline 105 % of control | dose: 200.0 mg/kg/injection, schedule: Q01DX028 (sc), vehicle: saline 102 % of control

COC1=C(N)C(=O)c2nc(-c3nc(C(=O)O)c(C)c(-c4ccc(OC)c(OC)c4O)c3N)ccc2C1=O
inactive: dose: 0.14 mg/kg/injection, schedule: Q01DX028 (sc), vehicle: other 100 % of control | dose: 0.23 mg/kg/injection, schedule: Q01DX028 (sc), vehicle: other 113 % of control | dose: 0.39 mg/kg/injection, schedule: Q01DX028 (sc), vehicle: other 115 % of control | dose: 0.65 mg/kg/injection, schedule: Q01DX028 (sc), vehicle: other 115 % of control | dose: 1.08 mg/kg/injection, schedule: Q01DX028 (sc), vehicle: other 94 % of control | dose: 1.8 mg/kg/injection, schedule: Q01DX028 (sc), vehicle: other 100 % of control

CC[C@H]1CN2CCc3cc(OC)c(OC)cc3[C@@H]2C[C@@H]1C[C@H]1NCCc2cc(OC)c(OC)cc21
inactive: [3] 106 % of control | [1] 106 % of control | [2] 94 % of control

CS(=O)(=O)OCCCCOS(C)(=O)=O
inactive: dose: 1.25 mg/kg/injection, schedule: Q01DX028 (sc), vehicle: carboxymethylcellulose (CMC) 92 % of control | dose: 2.5 mg/kg/injection, schedule: Q01DX028 (sc), vehicle: carboxymethylcellulose (CMC) 102 % of control | dose: 5.0 mg/kg/injection, schedule: Q01DX028 (sc), vehicle: carboxymethylcellulose (CMC) 102 % of control | dose: 10.0 mg/kg/injection, schedule: Q01DX028 (sc), vehicle: carboxymethylcellulose (CMC) 123 % of control

CO[C@@]12[C@H](COC(N)=O)C3=C(C(=O)C(C)=C(N)C3=O)N1C[C@@H]1N[C@@H]12
active: dose: 0.25 mg/kg/injection, schedule: Q01DX028 (sc), vehicle: saline 191 % of control | dose: 0.5 mg/kg/injection, schedule: Q01DX028 (sc), vehicle: saline 161 % of control
inactive: [3] 111 % of control | [1] 100 % of control

CCOc1ccccc1C(=O)Nc1ccc(Br)cc1
inactive: dose: 180.0 mg/kg/injection, schedule: Q01DX Z (sc), vehicle: carboxymethylcellulose (CMC) 97 % of control | dose: 266.0 mg/kg/injection, schedule: Q01DX Z (sc), vehicle: carboxymethylcellulose (CMC) 105 % of control | dose: 400.0 mg/kg/injection, schedule: Q01DX Z (sc), vehicle: carboxymethylcellulose (CMC) 100 % of control | dose: 600.0 mg/kg/injection, schedule: Q01DX Z (sc), vehicle: carboxymethylcellulose (CMC) 94 % of control

Cn1cnc([N+](=O)[O-])c1Sc1nc(N)nc2nc[nH]c12
inactive: dose: 0.5 mg/kg/injection, schedule: Q01DX028 (sc), vehicle: carboxymethylcellulose (CMC) 97 % of control | dose: 1.0 mg/kg/injection, schedule: Q01DX028 (sc), vehicle: carboxymethylcellulose (CMC) 117 % of control | dose: 4.0 mg/kg/injection, schedule: Q01DX028 (sc), vehicle: carboxymethylcellulose (CMC) 100 % of control

COc1cc2cccnc2c2[nH]ccc(=O)c12
inactive: dose: 50.0 mg/kg/injection, schedule: Q01DX009 (sc), vehicle: saline 100 % of control | dose: 100.0 mg/kg/injection, schedule: Q01DX009 (sc), vehicle: saline 92 % of control | dose: 200.0 mg/kg/injection, schedule: Q01DX009 (sc), vehicle: saline 102 % of control | dose: 400.0 mg/kg/injection, schedule: Q01DX009 (sc), vehicle: saline 104 % of control

CCOC(N)=O
active: dose: 400.0 mg/kg/injection, schedule: Q01DX028 (sc), vehicle: saline 210 % of control | dose: 512.0 mg/kg/injection, schedule: Q01DX028 (sc), vehicle: other 175 % of control
inactive: dose: 128.0 mg/kg/injection, schedule: Q01DX028 (sc), vehicle: other 98 % of control
